Source: PubChem BioAssay AID248 (DTP/NCI, 2004)
Values joined by “and” are separate entries in the source; they are usually repeats but may differ in a detail not shown here. Identical values can stand only once. Inconclusive results and toxic doses are left out. No stated cut-off is given here; in the data, active means T/C of 150% or more; inactive means T/C below 125%.

System: L1210 leukemia ip in BDF1 mice, survival T/C
Assay: NCI In Vivo Anticancer Drug Screen. Data for tumor model L1210 Leukemia (intraperitoneal) in B6D2F1 (BDF1) mice
Settings: endpoint: mean survival time, higher = longer survival
Method in brief: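 Mice bearing the transplanted tumor received compound or vehicle. Survival of the treated group was divided by that of the vehicle-treated control group to give the ratio.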

[1] = dose: 100.0 mg/kg/injection, schedule: Q01DX009 (ip), vehicle: saline
[2] = dose: 200.0 mg/kg/injection, schedule: Q01DX009 (ip), vehicle: saline
[3] = dose: 100.0 mg/kg/injection, schedule: Q04DX003 (ip), vehicle: saline
[4] = dose: 100.0 mg/kg/injection, schedule: Q04DX002 (ip), vehicle: saline
[5] = dose: 200.0 mg/kg/injection, schedule: Q04DX002 (ip), vehicle: saline
[6] = dose: 400.0 mg/kg/injection, schedule: Q04DX002 (ip), vehicle: saline
[7] = dose: 100.0 mg/kg/injection, schedule: Q04DX003 (ip), vehicle: Klucel (hydroxypropylcellulose) (HPC)
[8] = dose: 200.0 mg/kg/injection, schedule: Q04DX003 (ip), vehicle: Klucel (hydroxypropylcellulose) (HPC)
[9] = dose: 400.0 mg/kg/injection, schedule: Q04DX003 (ip), vehicle: Klucel (hydroxypropylcellulose) (HPC)

Measured: T/C

CC(C)(C)OC(=O)NCC(=O)NNC(=O)OC(C)(C)C
inactive: [1] 92 % of control | dose: 100.0 mg/kg/injection, schedule: Q04DX003 (ip), vehicle: saline sonified 101 % of control | [2] 89 % of control | dose: 200.0 mg/kg/injection, schedule: Q04DX003 (ip), vehicle: saline sonified 97 % of control | dose: 400.0 mg/kg/injection, schedule: Q01DX009 (ip), vehicle: saline 92 % of control | dose: 400.0 mg/kg/injection, schedule: Q04DX003 (ip), vehicle: saline sonified 95 % of control

COC(=O)C(OC(=O)n1ccnc1)(c1ccccc1)c1ccccc1
inactive: dose: 100.0 mg/kg/injection, schedule: Q04DX002 (ip), vehicle: gum acacia 112 % of control | dose: 200.0 mg/kg/injection, schedule: Q04DX002 (ip), vehicle: gum acacia 94 % of control | dose: 400.0 mg/kg/injection, schedule: Q04DX002 (ip), vehicle: gum acacia 97 % of control

NC(=O)NOCC(N)C(=O)O (stereo unspecified)
inactive: [3] 102 % of control | dose: 200.0 mg/kg/injection, schedule: Q04DX003 (ip), vehicle: saline 102 % of control | dose: 400.0 mg/kg/injection, schedule: Q04DX003 (ip), vehicle: saline 97 % of control

Cc1ccc(S(=O)(=O)O)cc1
inactive: dose: 12.5 mg/kg/injection, schedule: Q01DX009 (ip), vehicle: saline 101 % of control | dose: 25.0 mg/kg/injection, schedule: Q01DX009 (ip), vehicle: saline 98 % of control | dose: 50.0 mg/kg/injection, schedule: Q01DX009 (ip), vehicle: saline 98 % of control | [1] 97 % of control | [4] 97 % of control | [3] 102 % of control | [2] 96 % of control | [5] 101 % of control | [6] 108 % of control

CCCCCCCCCCCCCCCCn1cnc2c(N)ncnc21
inactive: dose: 12.5 mg/kg/injection, schedule: Q01DX005 (ip), vehicle: other 104 % of control | dose: 25.0 mg/kg/injection, schedule: Q01DX005 (ip), vehicle: other 96 % of control | dose: 50.0 mg/kg/injection, schedule: Q01DX005 (ip), vehicle: other 101 % of control | dose: 100.0 mg/kg/injection, schedule: Q01DX005 (ip), vehicle: other 96 % of control | dose: 200.0 mg/kg/injection, schedule: Q01DX005 (ip), vehicle: other 95 % of control

C=COCC(C)C (tested in a mixture with another compound)
inactive: dose: 1.56 mg/kg/injection, schedule: Q01DX001 (ip), vehicle: other 94 % of control | dose: 3.12 mg/kg/injection, schedule: Q01DX001 (ip), vehicle: other 91 % of control | dose: 3.12 mg/kg/injection, schedule: Q01DX009 (ip), vehicle: other 109 % of control | dose: 3.12 mg/kg/injection, schedule: Q04DX003 (ip), vehicle: Klucel (hydroxypropylcellulose) (HPC) 97 % of control | dose: 3.13 mg/kg/injection, schedule: Q04DX003 (ip), vehicle: saline 92 % of control | dose: 4.7 mg/kg/injection, schedule: Q01DX009 (ip), vehicle: saline 104 % of control | dose: 6.25 mg/kg/injection, schedule: Q01DX001 (ip), vehicle: other 96 % of control | dose: 6.25 mg/kg/injection, schedule: Q01DX009 (ip), vehicle: Klucel (hydroxypropylcellulose) (HPC) 107 % of control | dose: 6.25 mg/kg/injection, schedule: Q01DX009 (ip), vehicle: other 98 % of control | dose: 6.25 mg/kg/injection, schedule: Q04DX003 (ip), vehicle: Klucel (hydroxypropylcellulose) (HPC) 114 % of control | dose: 6.25 mg/kg/injection, schedule: Q04DX003 (ip), vehicle: saline 94 % of control | dose: 7.09 mg/kg/injection, schedule: Q01DX009 (ip), vehicle: Klucel (hydroxypropylcellulose) (HPC) 107 % of control | dose: 9.4 mg/kg/injection, schedule: Q01DX009 (ip), vehicle: saline 102 % of control | dose: 10.6 mg/kg/injection, schedule: Q01DX009 (ip), vehicle: Klucel (hydroxypropylcellulose) (HPC) 107 % of control | dose: 12.5 mg/kg/injection, schedule: Q01DX009 (ip), vehicle: Klucel (hydroxypropylcellulose) (HPC) 93 % of control | dose: 12.5 mg/kg/injection, schedule: Q04DX003 (ip), vehicle: Klucel (hydroxypropylcellulose) (HPC) 111 % of control | dose: 15.0 mg/kg/injection, schedule: Q01DX001 (ip), vehicle: saline 109 % of control | dose: 25.0 mg/kg/injection, schedule: Q04DX003 (ip), vehicle: Klucel (hydroxypropylcellulose) (HPC) 88 % of control | dose: 30.0 mg/kg/injection, schedule: Q01DX001 (ip), vehicle: saline 112 % of control | dose: 60.0 mg/kg/injection, schedule: Q01DX001 (ip), vehicle: saline 95 % of control | dose: 75.0 mg/kg/injection, schedule: Q01DX001 (ip), vehicle: carboxymethylcellulose (CMC) 95 % of control | dose: 75.0 mg/kg/injection, schedule: Q04DX003 (ip), vehicle: saline 108 % of control and 110 % of control | dose: 100.0 mg/kg/injection, schedule: Q01DX001 (ip), vehicle: other 106 % of control and 94 % of control | dose: 150.0 mg/kg/injection, schedule: Q01DX001 (ip), vehicle: carboxymethylcellulose (CMC) 114 % of control | dose: 150.0 mg/kg/injection, schedule: Q04DX003 (ip), vehicle: saline 98 % of control | dose: 300.0 mg/kg/injection, schedule: Q01DX001 (ip), vehicle: carboxymethylcellulose (CMC) 100 % of control | dose: 400.0 mg/kg/injection, schedule: Q01DX001 (ip), vehicle: Klucel (hydroxypropylcellulose) (HPC) 92 % of control

NC(=O)Nc1nc(-c2ccccc2)cc(-c2ccccc2O)n1
inactive: dose: 100.0 mg/kg/injection, schedule: Q04DX002 (ip), vehicle: Klucel (hydroxypropylcellulose) (HPC) 91 % of control | dose: 200.0 mg/kg/injection, schedule: Q04DX002 (ip), vehicle: Klucel (hydroxypropylcellulose) (HPC) 91 % of control | dose: 400.0 mg/kg/injection, schedule: Q04DX002 (ip), vehicle: Klucel (hydroxypropylcellulose) (HPC) 102 % of control

CCNC(=S)N/N=C(/c1ccc(OC)cc1)P(=O)(OCC)OCC
inactive: [7] 104 % of control | [8] 100 % of control | [9] 89 % of control

CCOC(=O)/C=C\SCC(=O)OCC
inactive: [4] 104 % of control | [5] 104 % of control | [6] 93 % of control

O=C(Nc1ccc(Cl)cc1)Nc1ccc(Cl)cc1
inactive: dose: 100.0 mg/kg/injection, schedule: Q04DX003 (ip), vehicle: saline with Tween-80 91 % of control | dose: 200.0 mg/kg/injection, schedule: Q04DX003 (ip), vehicle: saline with Tween-80 91 % of control

CC1=C(c2ccccc2)C(c2ccccc2)=C(C)C1=NNc1ccc([N+](=O)[O-])cc1[N+](=O)[O-]
inactive: dose: 100.0 mg/kg/injection, schedule: Q01DX001 (ip), vehicle: saline with Tween-80 86 % of control | dose: 200.0 mg/kg/injection, schedule: Q01DX001 (ip), vehicle: saline with Tween-80 86 % of control | dose: 400.0 mg/kg/injection, schedule: Q01DX001 (ip), vehicle: saline with Tween-80 86 % of control

Cn1ncc2ccccc2c1=O
inactive: dose: 50.0 mg/kg/injection, schedule: Q04DX003 (ip), vehicle: Klucel (hydroxypropylcellulose) (HPC) 100 % of control | [7] 100 % of control | [8] 106 % of control | [9] 110 % of control
